One assay concerns HCT-116. Description: MTS antiproliferative assay HCT116. It is filed as cell-based. Conditions: Homo sapiens, 72 h of incubation. (In general: Tetrazolium dyes change colour on reduction, which living cells bring about.)
A further assay has as its system A549. Description: MTS antiproliferative assay A549. Conditions: 72 h of incubation. It is filed as cell-based, human.
For another assay, the system named is A549 cell line. Description: Annexin V-FITC/PI flow cytometry apoptosis assay A549. It counts as cell-based, human. As to conditions: 24 h. As to the method:
Cell death was assessed after 24 h incubation with compounds 18 and 22. Apoptosis was analyzed by flow cytometry using annexin V-FITC and propidium iodide (PI). Early apoptosis was defined by annexin V-FITC expression and, necrosis by PI expression, late apoptosis by coexpression of annexin V/PI. Doxorubicin and quercetin were used as positive controls. The results of a typical flow cytometry analysis of both compounds are illustrated in Figure 2 and Figure 3. An increase in early apoptosis and late apoptosis was observed; necrosis was less predominant. The results are summarized in Tables S1 and S2 (Supplementary Materials). The expression of annexin V was different depending on the compound used. K562, A549 cell lines were treated as described by the manufacturer (Santa Cruz Biotechnology), washed, and resuspended in annexin V binding buffer (0.01 M HEPES, 0.14 M NaCl, and 2.5 mM CaCl2) with the subsequent incubation of annexinV-FITC and then PI. An Epics XL cytometer (Beckman Coulter, Indianapolis, IN, USA) was used for the analysis. Untreated cells were the negative controls, and doxorubicin (Dox) (1 μM), and quercetin (QC) (50 μM) were the positive controls. Early apoptosis refers to annexin V expression, late apoptosis, the coexpression of annexin V and PI, and necrosis the sole expression of PI. […] The experiments were performed as described before. To avoid the unwanted effects of DMSO, the concentrations of the compounds were never higher than 100 μM.
In general terms: A flow cytometer gives signals particle by particle.

In a further assay the test system is CCRF-CEM. Description: MTS antiproliferative assay CCRF-CEM. It is filed as cell-based. Conditions: Homo sapiens, 72 h of incubation.
In another assay the test system is VERO cells. Description: MTT cytotoxicity on VERO cells. It counts as cell-based, African green monkey. As to conditions: Chlorocebus sabaeus, 72 h. The procedure: Vero cells were derived from the kidney of an African green monkey, cells were maintained in Dulbecco’s Modified Eagle’s Medium (DMEM), supplemented with 10% heat-inactivated FBS and penicillin-streptomycin solution 1% at 37 °C, 5% CO2 atmosphere and > 95% humidity. We evaluated through a colorimetric method the effect of compounds 8–23 on the promastigotes of L. brasiliensis. Briefly, 96-well plates were used, where 2 × 10^6 parasites/mL were seeded. A concentration of 50 μM was used for each compound and an incubation time of 96 h at 29 °C. 3-(4,5-dimethylthiazol-2-yl)-2,5-diphenyl tetrazolium bromide (MTT) 1 μg/mL was added and incubated in darkness for 4 h, acidic isopropanol (4N) was added and the plate was read at 570 nm in a spectrophotometer Synergy HT (Biotek). Miltefosine was used as a reference drug. The EC50 calculation of the selected compound was performed using growth curves. Direct counting was used to monitor the proliferation of parasites, three independent experiments were performed for each concentration of the compounds evaluated. The in vitro evaluations of compounds toxicity by MTT in VERO and BMDM cells follow a methodology described above with some modifications. The selectivity index was calculated with SI = CC50/EC50, where CC50 was the maximum concentration range of compounds 10, 21–23 used to evaluate cytotoxicity in VERO and BMDM cells. The trypanocidal activity of compounds 8–23 was evaluated on the viability of T. cruzi epimastigotes through a colorimetric method adapted with minor modifications. 2 × 10^6 parasites/mL were seeded in a 96-well plate, adding 50 μM of each derivative dissolved in DMSO (final concentration remained below 1%). The plate was incubated for 96 h at 29 °C. Then, 1 μg/mL of 3-(4,5-dimethylthiazol-2-yl)-2,5-diphenyl tetrazolium bromide (MTT) was added and incubated in darkness for 4 h. After this time, acidic isopropanol (4N) was added and the plate was read at 570 nm in a spectrophotometer Synergy HT (Biotek). Benznidazole was used as a reference drug. The in vitro evaluations of compounds toxicity by MTT in VERO and BMDM cells follow a methodology described above with some modifications. Cells were counted in suspension and seeded at 20 × 10^3 cells/well. The test was carried out in triplicate on 96-well microplates in different concentrations: 50 μM, 100 μM, 200 μM and 300 μM, untreated cells and reference drug (benznidazole) controls.

The next assay deals with CEM-DNR. Description: MTS antiproliferative assay CEM-DNR. It counts as cell-based. Conditions: Homo sapiens, 72 h of incubation, daunorubicin-resistant.

We go through one compound from paper PMC9457600, “Synthesis, Leishmanicidal, Trypanocidal, Antiproliferative Assay and Apoptotic Induction of (2-Phenoxypyridin-3-yl)naphthalene-1(2H)-one Derivatives” (Molecules, 2022).

`COc1ccc2c(c1)CC/C(=C\c1cccnc1Oc1ccc(Cl)cc1)C2=O` [Compound 22, (E)-2-{[2-(4-Chlorophenoxy)pyridin-3-yl]methylene}-3,4-dihydro-6-methoxynaphthalen-1(2H)-one]: the IC50 (as a rule, the concentration needed to halve the response being measured) was 13 ± 3.61 µM with HCT-116; 9.74 ± 1.28 µM in the assay on A549; 9.64 to 9.74 µM in the assay with A549 (Homo sapiens, A549, 72 h); 5.23 ± 0.3 µM in the assay on CCRF-CEM; 22.5 ± 4.77 µM with CEM-DNR. For the same compound, the “AV+/IP+ (late apoptosis)” value in the assay on A549 cell line (A549, 10 µM) came to 23.30%; in the assay with A549 cell line (A549, 25 µM), 78.30%. The “AV+/IP- (early apoptosis)” value in the assay with A549 cell line (A549, 10 µM) worked out at 13.80%; in the assay with A549 cell line (A549, 25 µM), 9.36%. Further, the “AV-/IP+ (necrosis)” value worked out at 8.44% in the assay on A549 cell line (A549, 10 µM) and 9.32% in the assay with A549 cell line (A549, 25 µM). The EC50 (commonly the concentration that produces a half-maximal response) in the assay with VERO cells is greater than 100 µM.
